Where “and” joins values, the source holds several entries; their conditions need not be identical. Equal values may be shown once.
Experiments:
[1] = LogD measurement (n-octanol/phosphate buffer); assay type: physicochemical; details: n-octanol / 1 M phosphate buffer pH 7.4
Protocol: LogD of the tracers was measured using the radioactivity remaining on the HLB SPE cartridges after their elution with ethanol during the tracer formulation procedure (see above). The cartridge was dried with nitrogen for 5 min and eluted with at least 1.5 mL n-octanol. A 500 μL portion of octanol eluate was mixed with 500 μL of 1 M phosphate buffer (pH 7.4) and vigorously vortexed for 5 min. The mixture was then centrifuged at 17,000g for 10 min and 3 × 100 μL aliquots of organic and aqueous phase were loaded into a gamma-counter for radioactivity measurement. To correct for possible presence of radioactive impurities in the tracer, aliquots of organic and aqueous phases were later analyzed by radio-TLC, and the counts obtained from the gamma-counter were corrected according to the percentage of impurities found in aqueous and organic phases. LogD was calculated with the following formula: LogD=lgCPMorg×Xorgtracer/CPMaq×Xaqtracer,
where CPMorg is the mean radioactivity of the organic aliquots, Xorgtracer is the mean percentage of radioactivity accounting for intact tracer in organic aliquots (as determined from radio-TLC), and CPMaq and Xaqtracer are the corresponding values for the aqueous phase.
For each tracer batch used for logD determination, the experiment was performed in duplicate. LogD values are means calculated from at least two independent experiments.

D2/3R = test: MicroPET study in rats; assay type: in vivo, Sprague-Dawley rats; details: for blood-brain barrier penetration: PET in rats; for Brain uptake, peak: 3 min after radiotracer injection, control rats; for Striatum-to-cerebellum uptake ratio (PET): saline pre-treated rats, peak (45 min post-injection for [^18F]FEt-AMC13 and [^11C]raclopride)
Protocol: Animal experiments were performed by licensed investigators in compliance with the Law on Animal Experiments of The Netherlands. The protocol was approved by the Committee on Animal Ethics of the University of Groningen. Young male (10–12 weeks of age, 300–350 g body weight) Sprague-Dawley rats (Harlan, the Netherlands) were used for all experiments. The rats were maintained at a 12-h light/12-h dark regime and were fed standard laboratory chow ad libitum.
Distribution of the radiotracers was studied in rats pre-treated, at random, with physiological saline (controls) or raclopride tartrate (1 mg/kg calculated per raclopride base, equivalent to 2.9 μmol/kg). Saline and raclopride were administered intravenously (1 mL/kg injected volume).
An additional group of saline pre-treated rats, injected with [^11C]raclopride, served as positive controls for D2/3R-specific brain uptake.
Two rats were scanned simultaneously. Before all manipulations, animals were anesthetized with a mixture of isoflurane/air (inhalation anesthesia, 5 % ratio during induction, 2 % at maintenance). Cannulae were placed into the rats’ left femoral arteries and veins; the operation took 45–50 min. The rats were positioned supine inside the camera (Focus 220 microPET, Siemens-Concorde), one above the other with their heads in the camera’s field of view. A 515-s transmission scan with a Co-57 point source was performed. Tracer was injected through the venous cannula as a slow bolus (1 mL volume, 60 s long) using an infusion pump. The second (upper) animal was injected 16 min after the first (lower).
PET acquisition was started during the injection of radioactivity in the first rat. A 106-min long (76 min long in the case of [^11C]raclopride) list-mode acquisition protocol was used for the scan.
List-mode data from the 106-min-long and 76-min-long scans were reframed into, respectively, 90-min-long and 60-min-long dynamic sequences of 6 × 10, 4 × 30, 2 × 60, 1 × 120, 1 × 180, 4 × 300, 3 × 600, and (for 90-min-long scans) 2 × 900 s frames. The data were reconstructed per time frame using an iterative reconstruction algorithm (attenuation-weighted 2-dimensional ordered-subset expectation maximization, provided by Siemens; 4 iterations, 16 subsets; zoom factor 2). Datasets were fully corrected for random coincidences, scatter, and attenuation. Data from the transmission scan were used for attenuation correction. The final datasets consisted of 95 slices, with a slice thickness of 0.8 mm and an in-plane image matrix size of 128 × 128 and pixel size of 0.47 × 0.47 mm.
Reconstructed images were analyzed with Inveon 2.0 software (Siemens Medical Solutions, USA, Inc). Regions of interest (ROIs) were drawn manually on a T2-weighted MRI template of rat brain around the striatum, brainstem, cortex, hippocampus, hypothalamus, thalamus, olfactory bulbs, and cerebellum around the whole brain and around the pituitary gland. The MRI template was co-registered with the PET scan by image fusion. The time-activity curves (TAC) per ROI were determined in Bq/cm^3 units and converted into standardized uptake values (SUVs).
Degree of D2/3R-specific binding of the tracers was characterized by BPND (as given above) or the specific binding ratio (SBR) given as target region activity/cerebellar activity - 1. Both were calculated under control conditions and in response to the raclopride challenge.

[2] = Tracer metabolism in plasma and brain extract (radio-TLC); assay type: in vivo, rats; details: for metabolism in plasma: living rats
Protocol: Throughout the scan, arterial blood samples (15–19 samples; 0.10–0.15 mL each) were withdrawn from each rat through the arterial cannula. […] From each sample, 25 μL aliquots of whole blood were withdrawn. The rest was centrifuged at 3500 g for 5 min; 25 μL supernatant (plasma) aliquots were withdrawn and deproteinated with 75 μL of ice-cold acetonitrile. From the resulting 100 μL, 2–8 μL portions (i.e., 2–8 % of volume) were taken for thin layer chromatography analysis (radio-TLC) to assess radiometabolite content.
The radioactivity of the plasma and whole blood samples was measured using a well-type gamma-counter (LKB-1282-Compugamma, LKB Wallac).
Radio-TLC was performed on silica plates. Samples of the formulated tracers (diluted) were run along with deproteinated plasma samples to confirm the identity of the parent compound in plasma. Eluent systems used and TLC Rf values recorded are presented in Additional file 1: Table S1.
Another half of the brain was homogenized in 3 mL of ice-cold acetonitrile using Heidolph IDAX600 homogenizer at maximum speed. Homogenate was centrifuged at 3500g for 5 min, and the supernatant (containing >95 % total radioactivity) was analyzed by radio-TLC in the same way as described above for the plasma.

Compound	logD [1]	blood-brain barrier penetration (D2/3R)	Brain uptake, peak (D2/3R; PET)	Striatum-to-cerebellum uptake ratio (PET) (D2/3R)	metabolism in plasma [2]	decrease in D2/3R-specific binding in the striatum in vivo (D2/3R; 1 mg/kg (2.9 μmol/kg) raclopride, range over estimates)	decrease of peak PET-based striatal SBR (D2/3R; 1 mg/kg raclopride, p = 0.25)	D2/3R occupancy by the tracer itself (crude estimation) (D2/3R; approach of Skinbjerg et al., all experiments)	peak PET-based striatal SBR (D2/3R; pre-treatment with 1 mg/kg (2.9 μmol/kg) raclopride)	peak PET-based striatal SBR (D2/3R; saline pre-treated)	intact tracer in radioactivity of brain tissue extract ([2]; 35 min post-injection)	entry of radiometabolites into the brain ([2]; rat, in vivo)	effect of raclopride pre-treatment on radioactivity distribution in the brain (D2/3R; 1 mg/kg raclopride)	Brain uptake (D2/3R; PET, 60 min post-injection)
Oc1ccc2c(c1)O[C@@H](CNCc1ccc(OCCCC[18F])cc1)CC2 [[^18F]FBu-AMC13, (R)-2-[(4-(4-[^18F]fluorobutoxy)benzylamino)methyl]chroman-7-ol]	2.5 ± 0.06	good blood-brain barrier (BBB) penetration	0.9 % ID	1.41 ± 0.08	quickly metabolized in the plasma	–	–	–	–	–	–	–	–	–
Oc1ccc2c(c1)O[C@@H](CNCc1ccc(OCC[18F])cc1)CC2 [[^18F]FEt-AMC13]	1.67 ± 0.07	good blood-brain barrier (BBB) penetration	0.7 % ID	2.08 and 2.1 and 2.08 ± 0.25	quickly metabolized in the plasma	17–39%	17%	no more than 3%	0.90 ± 0.11	1.08 ± 0.25	92%	did not enter the brain	–	–
Oc1ccc2c(c1)O[C@@H](CNCCN1CCN(c3ccc(OCC[18F])cc3)CC1)CC2 [[^18F]FEt-AMC15, (R) 1-(4-(2-[^18F]fluoroethoxy)phenyl)-4-(4-(7-hydroxychroman-2-yl)-3-azabutyl)-piperazine]	1.48 ± 0.002	essentially did not penetrate the BBB	0.2 % ID	–	more stable	–	–	–	–	–	–	–	no detectable alterations of radioactivity distribution in the brain	0.04 % ID

Reference: article PMC4512978, “Synthesis and evaluation in rats of homologous series of [^18F]-labeled dopamine D2/3 receptor agonists based on the 2-aminomethylchroman scaffold as potential PET tracers” (EJNMMI Research, 2015)
